Reference: patent US9937183B2, “Antimicrobial compounds and methods of making and using the same” (priority 2013, dated 2018)
Values after ≈ are worked out from the molar mass of the structure shown. Where two headings read alike, the source gives them in different places.

What was measured:
Format in all cases: cell-based
[1] = test system: E. coli ATCC25922; assay: MIC, microtiter-based liquid assay (CLSI); details: Escherichia coli
[2] = test system: E. coli 1705878; assay: MIC, microtiter-based liquid assay (CLSI); details: Escherichia coli, MDR strain
[3] = test system: E. coli MG1655 parent; assay: MIC, microtiter-based liquid assay (CLSI); details: Escherichia coli
[4] = test system: E. coli CAG12184 TolC; assay: MIC, microtiter-based liquid assay (CLSI); details: Escherichia coli, CAG12184TOLC
[5] = test system: S. pneumoniae 02J1175 Mef(A); assay: MIC, microtiter-based liquid assay (CLSI); details: Streptococcus pneumoniae
[6] = test system: S. aureus 11540 MRSA; assay: MIC, microtiter-based liquid assay (CLSI); details: Staphylococcus aureus
[7] = test system: K. pneumoniae 1705949; assay: MIC, microtiter-based liquid assay (CLSI); details: Klebsiella pneumoniae, MDR strain
[8] = test system: K. pneumoniae 1705966; assay: MIC, microtiter-based liquid assay (CLSI); details: Klebsiella pneumoniae
[9] = test system: A. baumannii 1705936; assay: MIC, microtiter-based liquid assay (CLSI); details: Acinetobacter baumannii, MDR strain
[10] = test system: A. baumannii 1705943; assay: MIC, microtiter-based liquid assay (CLSI); details: Acinetobacter baumannii
[11] = test system: P. aeruginosa ATCC27853; assay: MIC, microtiter-based liquid assay (CLSI); details: Pseudomonas aeruginosa
[12] = test system: P. aeruginosa 1705886; assay: MIC, microtiter-based liquid assay (CLSI); details: Pseudomonas aeruginosa
[13] = test system: P. aeruginosa 1705904; assay: MIC, microtiter-based liquid assay (CLSI); details: Pseudomonas aeruginosa, MDR strain
[14] = test system: E. faecium A6349 VanA + LNZ-R; assay: MIC, microtiter-based liquid assay (CLSI); details: Enterococcus faecium
[15] = test system: B. anthracis; assay: microbe, parasite or virus in culture; details: Bacillus anthracis; for MIC50: read-out: B. anthracis MIC50; for MIC90: read-out: B. anthracis MIC90; for MIC: read-out: B. anthracis MIC Range
[16] = test system: Y. pestis; assay: microbe, parasite or virus in culture; details: Yersinia pestis; for MIC50: read-out: Y. pestis MIC50; for MIC90: read-out: Y. pestis MIC90; for MIC: read-out: Y. pestis MIC Range
[17] = test system: B. mallei; assay: microbe, parasite or virus in culture; details: Burkholderia mallei; for MIC50: read-out: B. mallei MIC50; for MIC90: read-out: B. mallei MIC90; for MIC: read-out: B. mallei MIC Range
[18] = test system: F. tularensis; assay: microbe, parasite or virus in culture; details: Francisella tularensis; for MIC50: read-out: F. tularensis MIC50; for MIC90: read-out: F. tularensis MIC90; for MIC: read-out: F. tularensis MIC Range
[19] = test system: B. pseudomallei; assay: microbe, parasite or virus in culture; details: Burkholderia pseudomallei; for MIC50: read-out: B. pseudomallei MIC50; for MIC90: read-out: B. pseudomallei MIC90; for MIC: read-out: B. pseudomallei MIC Range
[20] = ATCC25922, read-out: MIC E. coli ATCC25922 + 50% HS
[21] = ATCC25922, read-out: MIC E. coli ATCC25922

Work on `C[C@H](N)CCCc1cc(Cl)c(F)c(-c2cc3cn(-c4ccc([C@H](CCNc5nccs5)NCCCNC(=N)N)cc4)c(=O)nc3[nH]2)c1` [Compound 15] yielded an MIC [1, 20] of 0.5 µg/mL, an MIC [1, 21] of 0.5 µg/mL (≈ 0.736 µM) and an MIC [2] of 2 µg/mL (≈ 2.94 µM). The MIC [3] was 1 µg/mL (≈ 1.47 µM), the MIC [4] was 0.25 µg/mL (≈ 0.368 µM) and the MIC [5] was 0.25 µg/mL (≈ 0.368 µM). It also gave an MIC [6] of 0.5 µg/mL (≈ 0.736 µM), an MIC [7] of 1 µg/mL (≈ 1.47 µM) and an MIC [8] of 0.25 µg/mL (≈ 0.368 µM). The MIC [9] was 1 µg/mL (≈ 1.47 µM), the MIC [10] was 0.5 µg/mL (≈ 0.736 µM) and the MIC [11] was 8 µg/mL (≈ 11.8 µM). It also gave an MIC [12] of 4 µg/mL (≈ 5.89 µM), an MIC [13] of 8 µg/mL (≈ 11.8 µM) and an MIC [14] of 2 µg/mL. For the same compound, the MIC50 [15] was 0.12 µg/mL (≈ 0.177 µM), the MIC90 [15] was 0.12 µg/mL (≈ 0.177 µM) and the MIC [15] was 0.03 to 0.25 µg/mL (≈ 0.0442 to 0.368 µM). For the same compound, the MIC50 [16] was 0.5 µg/mL (≈ 0.736 µM), the MIC90 [16] was 1 µg/mL (≈ 1.47 µM) and the MIC [16] was 0.06 to 1 µg/mL (≈ 0.0883 to 1.47 µM). For the same compound, the MIC50 [17] was 0.06 µg/mL (≈ 0.0883 µM), the MIC90 [17] was 0.25 µg/mL (≈ 0.368 µM) and the MIC [17] was 0.03 to 0.5 µg/mL (≈ 0.0442 to 0.736 µM). It also gave an MIC50 [18] of 0.06 µg/mL (≈ 0.0883 µM), an MIC90 [18] of 0.25 µg/mL (≈ 0.368 µM) and an MIC [18] of 0.03 to 2 µg/mL (≈ 0.0442 to 2.94 µM). For the same compound, the MIC50 [19] was 8 µg/mL (≈ 11.8 µM), the MIC90 [19] was 16 µg/mL (≈ 23.6 µM) and the MIC [19] was 4 to 32 µg/mL (≈ 5.89 to 47.1 µM).
`COC[C@H](N)CCCc1cc(Cl)c(F)c(-c2cc3cn(-c4ccc(CNCCCNC(=N)N)cc4)c(=O)nc3[nH]2)c1` [Compound 6] was tested, and the MIC [1, 20] was 0.25 µg/mL, the MIC [1, 21] was 0.5 µg/mL (≈ 0.857 µM) and the MIC [2] was 1 µg/mL (≈ 1.71 µM). For the same compound, the MIC [3] was 0.25 µg/mL (≈ 0.429 µM), the MIC [4] was 0.25 µg/mL (≈ 0.429 µM) and the MIC [5] was 0.25 µg/mL (≈ 0.429 µM). For the same compound, the MIC [6] was 0.25 µg/mL (≈ 0.429 µM), the MIC [7] was 2 µg/mL (≈ 3.43 µM) and the MIC [8] was 0.5 µg/mL (≈ 0.857 µM). For the same compound, the MIC [9] was 4 µg/mL (≈ 6.86 µM), the MIC [10] was 0.25 µg/mL (≈ 0.429 µM) and the MIC [11] was 8 µg/mL (≈ 13.7 µM). The MIC [12] was 4 µg/mL (≈ 6.86 µM), the MIC [13] was 8 µg/mL (≈ 13.7 µM) and the MIC [14] was 4 µg/mL. It also gave an MIC50 [15] of 0.5 µg/mL (≈ 0.857 µM), an MIC90 [15] of 0.5 µg/mL (≈ 0.857 µM) and an MIC [15] of 0.06 to 1 µg/mL (≈ 0.103 to 1.71 µM). The MIC50 [16] was 0.25 µg/mL (≈ 0.429 µM), the MIC90 [16] was > 16 µg/mL and the MIC50 [17] was ≤ 0.03 µg/mL. The MIC90 [17] was 0.12 µg/mL (≈ 0.206 µM), the MIC [17] was 0.03 to 0.5 µg/mL (≈ 0.0514 to 0.857 µM) and the MIC50 [18] was ≤ 0.03 µg/mL. It also gave an MIC90 [18] of 0.06 µg/mL (≈ 0.103 µM), an MIC [18] of 0.03 to 1 µg/mL (≈ 0.0514 to 1.71 µM) and an MIC50 [19] of 8 µg/mL (≈ 13.7 µM). For the same compound, the MIC90 [19] was 16 µg/mL (≈ 27.4 µM) and the MIC [19] was 1 to 32 µg/mL (≈ 1.71 to 54.9 µM).
`NC[C@H]1O[C@H](O[C@H]2[C@H](O)[C@@H](O[C@H]3O[C@H](CO)[C@@H](O)[C@H](N)[C@H]3O)[C@H](N)C[C@@H]2N)[C@H](N)C[C@@H]1O` [Tobramycin, reference compound] was tested, and the MIC [1, 20] was 1 µg/mL, the MIC [1, 21] was 1 µg/mL (≈ 2.14 µM) and the MIC [2] was 64 µg/mL (≈ 137 µM). For the same compound, the MIC [3] was 1 µg/mL (≈ 2.14 µM), the MIC [4] was 1 µg/mL (≈ 2.14 µM) and the MIC [5] was 16 µg/mL (≈ 34.2 µM). For the same compound, the MIC [6] was 0.5 µg/mL (≈ 1.07 µM), the MIC [7] was > 128 µg/mL and the MIC [8] was ≤ 0.25 µg/mL. The MIC [9] was 8 µg/mL (≈ 17.1 µM), the MIC [10] was ≤ 0.25 µg/mL and the MIC [11] was 0.5 µg/mL (≈ 1.07 µM). The MIC [12] was 0.5 µg/mL (≈ 1.07 µM), the MIC [13] was 128 µg/mL (≈ 274 µM) and the MIC [14] was > 128 µg/mL.
For `C=CCC[C@H](NCCCNC(=N)N)c1ccc(-n2cc3cc(-c4cc(CCC[C@H](C)N)cc(Cl)c4F)[nH]c3nc2=O)cc1` [Compound 14], the MIC [1, 20] was 2 µg/mL, the MIC [1, 21] was 0.5 µg/mL (≈ 0.823 µM) and the MIC [2] was 1 µg/mL (≈ 1.65 µM). The MIC [3] was 1 µg/mL (≈ 1.65 µM), the MIC [4] was 0.5 µg/mL (≈ 0.823 µM) and the MIC [5] was 0.5 µg/mL (≈ 0.823 µM). The MIC [6] was 0.5 µg/mL (≈ 0.823 µM), the MIC [7] was 1 µg/mL (≈ 1.65 µM) and the MIC [8] was 0.5 µg/mL (≈ 0.823 µM). It also gave an MIC [9] of 0.5 µg/mL (≈ 0.823 µM), an MIC [10] of 0.5 µg/mL (≈ 0.823 µM) and an MIC [11] of 4 µg/mL (≈ 6.59 µM). For the same compound, the MIC [12] was 2 µg/mL (≈ 3.29 µM), the MIC [13] was 4 µg/mL (≈ 6.59 µM) and the MIC [14] was 1 µg/mL. For the same compound, the MIC50 [15] was 0.25 µg/mL (≈ 0.412 µM), the MIC90 [15] was 0.25 µg/mL (≈ 0.412 µM) and the MIC [15] was 0.03 to 0.5 µg/mL (≈ 0.0494 to 0.823 µM). The MIC50 [16] was 0.12 µg/mL (≈ 0.198 µM), the MIC90 [16] was 0.5 µg/mL (≈ 0.823 µM) and the MIC [16] was 0.03 to 0.5 µg/mL (≈ 0.0494 to 0.823 µM). For the same compound, the MIC50 [17] was ≤ 0.03 µg/mL, the MIC90 [17] was 0.25 µg/mL (≈ 0.412 µM) and the MIC [17] was 0.03 to 0.5 µg/mL (≈ 0.0494 to 0.823 µM). For the same compound, the MIC50 [18] was 0.06 µg/mL (≈ 0.0988 µM), the MIC90 [18] was 0.25 µg/mL (≈ 0.412 µM) and the MIC [18] was 0.03 to 2 µg/mL (≈ 0.0494 to 3.29 µM). For the same compound, the MIC50 [19] was 2 µg/mL (≈ 3.29 µM), the MIC90 [19] was 4 µg/mL (≈ 6.59 µM) and the MIC [19] was 0.25 to 8 µg/mL (≈ 0.412 to 13.2 µM).
`C=C[C@@H](NCCCNC(=N)N)c1ccc(-n2cc3cc(-c4cc(CCC[C@H](C)N)cc(Cl)c4F)[nH]c3nc2=O)cc1` [Compound 11] was tested, and the MIC [1, 20] was 0.5 µg/mL, the MIC [1, 21] was 0.25 µg/mL (≈ 0.432 µM) and the MIC [2] was 0.5 µg/mL (≈ 0.863 µM). For the same compound, the MIC [3] was 0.25 µg/mL (≈ 0.432 µM), the MIC [4] was 0.25 µg/mL (≈ 0.432 µM) and the MIC [5] was 2 µg/mL (≈ 3.45 µM). It also gave an MIC [6] of 0.5 µg/mL (≈ 0.863 µM), an MIC [7] of 8 µg/mL (≈ 13.8 µM) and an MIC [8] of 1 µg/mL (≈ 1.73 µM). It also gave an MIC [9] of 1 µg/mL (≈ 1.73 µM), an MIC [10] of 0.25 µg/mL (≈ 0.432 µM) and an MIC [11] of 4 µg/mL (≈ 6.91 µM). The MIC [12] was 4 µg/mL (≈ 6.91 µM), the MIC [13] was 8 µg/mL (≈ 13.8 µM) and the MIC [14] was 4 µg/mL. It also gave an MIC50 [15] of 0.25 µg/mL (≈ 0.432 µM), an MIC90 [15] of 0.5 µg/mL (≈ 0.863 µM) and an MIC [15] of 0.12 to 0.5 µg/mL (≈ 0.207 to 0.863 µM). For the same compound, the MIC50 [16] was ≤ 0.03 µg/mL, the MIC90 [16] was 0.12 µg/mL (≈ 0.207 µM) and the MIC [16] was 0.03 to 0.5 µg/mL (≈ 0.0518 to 0.863 µM). For the same compound, the MIC50 [17] was ≤ 0.03 µg/mL, the MIC90 [17] was 0.12 µg/mL (≈ 0.207 µM) and the MIC [17] was 0.03 to 0.25 µg/mL (≈ 0.0518 to 0.432 µM). The MIC50 [18] was 0.06 µg/mL (≈ 0.104 µM), the MIC90 [18] was 0.25 µg/mL (≈ 0.432 µM) and the MIC [18] was 0.03 to 4 µg/mL (≈ 0.0518 to 6.91 µM). The MIC50 [19] was 1 µg/mL (≈ 1.73 µM), the MIC90 [19] was 4 µg/mL (≈ 6.91 µM) and the MIC [19] was 0.25 to 8 µg/mL (≈ 0.432 to 13.8 µM).
